Test [1] relates to ASZ001. The experiment in a line: Inhibition of hedgehog signalling in mouse ASZ001 cells assessed as upregulation of VDR expression in by immunoblot analysis. The class given is cell-based. In general terms: A western blot detects proteins with antibodies after separation by electrophoresis.
Test [2] deals with MEF. The experiment in a line: Inhibition of hedgehog signalling in mouse Sufu-KO MEF cells assessed as upregulation of VDR expression at 10 uM in by immunoblot analysis. Format: cell-based.
The nature of test [3]: Inhibition of hedgehog signalling in mouse ASZ001 cells assessed as reduction in Gli1 mRNA expression measured after 48 hrs by RT-PCR analysis. Format: cell-based. The note with it: ASZ001, 48 h.
Test [4] deals with T1, Vitamin D3 receptor (Mus musculus) (UniProt P48281).
T1 sequence (whole entry): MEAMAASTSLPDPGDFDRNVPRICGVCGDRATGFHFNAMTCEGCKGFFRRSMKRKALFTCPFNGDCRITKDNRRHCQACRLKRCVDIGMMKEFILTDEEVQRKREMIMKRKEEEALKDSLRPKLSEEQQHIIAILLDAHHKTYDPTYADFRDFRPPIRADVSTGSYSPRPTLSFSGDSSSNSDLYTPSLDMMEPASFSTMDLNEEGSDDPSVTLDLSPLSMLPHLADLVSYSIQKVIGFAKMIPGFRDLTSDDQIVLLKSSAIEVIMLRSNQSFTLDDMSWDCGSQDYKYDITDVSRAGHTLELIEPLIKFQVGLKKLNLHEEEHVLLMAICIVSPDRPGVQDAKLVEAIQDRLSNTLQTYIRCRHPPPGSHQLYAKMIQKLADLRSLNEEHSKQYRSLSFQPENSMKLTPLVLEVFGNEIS
The experiment in a line: Activation of VDR in mouse ASZ001 cells assessed as upregulation of Cyp24A1 mRNA expression at 5 uM measured after 48 hrs by RT-PCR analysis relative to control. The class given is cell-based.

In test [5] the target is T1, Vitamin D3 receptor (Mus musculus). The test is described as follows: Activation of VDR in mouse ASZ001 cells assessed as upregulation of Cyp24A1 mRNA expression at 2.5 uM measured after 48 hrs by RT-PCR analysis relative to control. The class given is cell-based. The conditions noted are these: filed as activator.
The nature of test [6]: Inhibition of hedgehog signalling in mouse C3H 10T1/2 cells assessed as reduction in Gli1 mRNA expression measured after 48 hrs by RT-PCR analysis. The class given is cell-based. The note with it: C3H 10T1/2, 48 h.
The target in test [7] is T1, Vitamin D3 receptor (Mus musculus). The test is described as follows: Activation of VDR in mouse C3H 10T1/2 cells assessed as upregulation of Cyp24A1 mRNA expression at 2.5 uM measured after 48 hrs by RT-PCR analysis relative to control. The class given is cell-based. The note with it: filed as activator.
Test [8] in a line: Binding affinity to recombinant human HSP70 assessed as dissociation constant incubated for 1 hrs […].
Test [9] in a line: Inhibition of hedgehog signalling in mouse VDR-KO MEF cells assessed as reduction in Gli1 mRNA expression measured after 48 hrs by RT-PCR analysis. Format: cell-based.
Another test is filed under the species Mus musculus. The experiment in a line: Selectivity index, ratio of IC50 for Inhibition of hedgehog signalling in mouse VDR-KO MEF cells to IC50 for inhibition of hedgehog signalling in mouse ASZ001 cells. Format: cell-based.
Test [10] concerns the target T1, Vitamin D3 receptor (Mus musculus). The test is described as follows: Activation of VDR in mouse C3H 10T1/2 cells assessed as upregulation of Cyp24A1 mRNA expression at 5 uM measured after 48 hrs by RT-PCR analysis relative to control. The class given is cell-based.
Test [11] in a line: Inhibition of hedgehog signalling in mouse Ptch-KO MEF cells assessed as reduction in Gli1 mRNA expression measured after 48 hrs by RT-PCR analysis. The class given is cell-based.
Test [12] in a line: Inhibition of hedgehog signalling in mouse Sufu-KO MEF cells assessed as reduction in Gli1 mRNA expression measured after 48 hrs by RT-PCR analysis. Format: cell-based.
Test [13] is filed under the species Homo sapiens. The experiment in a line: Binding affinity to recombinant human HSP70 incubated for 1 hrs by Western blotting based pull-down assay. The note with it: filed as antagonist.
For test [14], the system named is ASZ001. The test is described as follows: Antiproliferative activity against mouse ASZ001 assessed as reduction in cell proliferation incubated for 72 hrs by MTS assay. The class given is functional, cell-based. Background: Tetrazolium dyes change colour on reduction, which living cells bring about.
In the next test the test system is C3H 10T1/2. The test is described as follows: Antiproliferative activity against mouse C3H 10T1/2 assessed as reduction in cell proliferation incubated for 72 hrs by MTS assay. Format: functional, cell-based.
Test [15] deals with ASZ001. The experiment in a line: Inhibition of hedgehog signalling in mouse ASZ001 cells assessed as reduction in Gli1 mRNA expression at 10 uM for 20 hrs by […]. The class given is cell-based.
For test [16], the species on record is Homo sapiens. The test is described as follows: Competitive binding affinity to recombinant human HSP70 at 200 uM incubated for 1 hrs in presence of Vitamin D3 by Western blotting based pull-down assay.
The species named for test [17] is Homo sapiens. The experiment in a line: Binding affinity to recombinant human HSP70 at 200 uM incubated for 1 hrs in presence of calcidiol by Western blotting based pull-down assay.
The species entered for test [18] is Homo sapiens. The experiment in a line: Binding affinity to recombinant human HSP70 at 200 uM incubated for 1 hrs in presence of Calcitriol by Western blotting based pull-down assay. The note with it: filed as antagonist.
For test [19], the system named is ASZ001. The test is described as follows: Inhibition of hedgehog signalling in mouse ASZ001 cells assessed as downregulation of VDR expression in by immunoblot analysis. The class given is cell-based.
Test [20] concerns MEF. The test is described as follows: Inhibition of hedgehog signalling in mouse Sufu-KO MEF cells assessed as upregulation of VDR expression at >15 uM in by immunoblot analysis. Format: cell-based. The conditions noted are these: dose microM >15.
The test system of test [21] is MEF. The test is described as follows: Inhibition of hedgehog signalling in mouse Sufu-KO MEF cells assessed as upregulation of Cyp27A1 expression by immunoblot analysis. Format: cell-based.
For test [22], the system named is MEF. The test is described as follows: Inhibition of hedgehog signalling in mouse Sufu-KO MEF cells assessed as upregulation of Cyp27B1 expression by immunoblot analysis. The class given is cell-based.
Test [23] deals with ASZ001. The test is described as follows: Inhibition of hedgehog signalling in mouse ASZ001 cells assessed as upregulation of Cyp27A1 expression by immunoblot analysis. The class given is cell-based.
Test [24] deals with ASZ001. The test is described as follows: Inhibition of hedgehog signalling in mouse ASZ001 cells assessed as upregulation of Cyp27B1 expression by immunoblot analysis. The class given is cell-based.

Calls of active or inactive are those of the source. No cut-off for these calls is given here.

`C=C1/C(=C\C=C2/CCC[C@]3(C)[C@@H]([C@H](C)CCCC(C)(C)O)CC[C@@H]23)C[C@@H](O)C[C@@H]1O`: the result in the test with ASZ001 [1] and in the test with MEF [2] was Active.
For the molecule `C#CCO[C@H](CCC(C)(C)O)[C@@H](C)[C@H]1CC[C@H]2/C(=C/C=C3/C[C@@H](O)CCC3=C)CCC[C@]12C`, the IC50 (commonly the concentration that inhibits the measured activity by half) in test [3] is 13.8 µM. Moreover, in [4], the Activity is under 1%.
In the case of `C=C1CC[C@H](O)C/C1=C/C=C1\CCC[C@]2(C)[C@@H]([C@H](C)CCCC(C)(C)O)CC[C@@H]12` [CALCIFEDIOL ANHYDROUS], the IC50 in test [3] turned out to be 0.4 µM; in test [6], 0.48 µM; in [9] it was 4.4 µM. Moreover, the Activity in test [5] and in test [7] was over 500% throughout. Besides, the Kd (commonly the free concentration of one partner at which half of the binding sites on the other are occupied at equilibrium, for simple one-to-one binding) in test [8] worked out at 6.5 µM. Further, in the test listed under Mus musculus, the Ratio IC50 is 11.
As to `C=C1CC[C@H](O)C/C1=C/C=C1\CCC[C@]2(C)[C@@H]([C@H](C)[C@@H](O)CCC(C)(C)O)CC[C@@H]12`, the Activity was 540% in test [10] (filed as activator) and 130% in test [4] (filed as activator). The results for the IC50 in [3] and in [6] were 1.7 µM and 1.2 µM, respectively. Also, in test [8], the Kd was over 50 µM.
In the same order, the values of `C=C1CC[C@H](O)C/C1=C/C=C1\CCC[C@]2(C)[C@@H]([C@H](C)[C@@H](O)CCC(C)C)CC[C@@H]12` are 261%, 105%, 0.38 µM, 1.3 µM and 11.5 µM.
Take `CCn1c(=O)/c(=C2\Sc3ccccc3N2C)s/c1=C\c1cccc[n+]1CC.[Cl-]`: the IC50 was 1.8 µM in [3], 5.6 µM in test [6], 9.5 µM in test [11] and “Not Active” in test [12] (mef).
Turning to `C#CCO[C@H](CCC(C)C)[C@@H](C)[C@H]1CC[C@H]2/C(=C/C=C3/C[C@@H](O)CCC3=C)CCC[C@]12C`, the Activity in [10] is under 1%; in test [4], 9%. The IC50 worked out at 0.43 µM in test [3] and 1.1 µM in [6].
Regarding `COc1ccc(-c2nc(-c3cc(C(F)(F)F)cc(C(F)(F)F)c3)n(Cc3ccc(C(N)=O)cc3)c2-c2ccc(OC)cc2)cc1`, the IC50 is 0.58 µM in test [3], 0.97 µM in test [6], 1.7 µM in test [11] and “Not Active” in [12] (mef). For the same molecule, the Kd in test [8] was determined as 0.84 µM.
Take `C=C1CC[C@H](O)C/C1=C/C=C1\CCC[C@]2(C)[C@@H]([C@H](C)[C@@H](CCC(C)(C)O)OCc3cn(CCOCCOCCOCCNC(=O)CCCC[C@H]4SC[C@H]5NC(=O)N[C@H]54)nn3)CC[C@@H]12`: the Activity in test [10] was under 1%; in test [4], under 1%; in the test filed under Homo sapiens [13] it was “Dose-Dependent Effect”. In addition, the IC50 is 1.1 µM in test [3] and 1.9 µM in test [6]. Also, the outcome in the test on ASZ001 [14], in the test with C3H 10T1/2, with ASZ001 [15] and in the test filed under Homo sapiens [18] was Active. The outcome in the test listed under Homo sapiens [16] and in the test filed under Homo sapiens [17] was inactive.
As to `C=C1CC[C@H](O)C/C1=C/C=C1\CCC[C@]2(C)[C@@H]([C@H](C)CCCC(C)C)CC[C@@H]12` [CHOLECALCIFEROL], the Activity in [10] (filed as activator) is 100%; in test [4] (filed as activator) it was 100%; in the test on MEF [21], “Dose-Dependent Effect”; in the test on MEF [22] it was “Dose-Dependent Effect”. Moreover, the IC50 in [3] was 2.1 µM; in test [6], 4.1 µM; in test [11] it was 5.8 µM; in test [12] (Mus musculus, MEF, 48 h, read-out: IC50) it was 13.6 µM. Also, the Kd in test [8] came to 1.4 µM. Further, the Ratio IC50 in the test listed under Mus musculus is 2. Further, the result in the test with ASZ001 [19], in the test on ASZ001 [23] and in the test with ASZ001 [24] was inactive. Besides, in the test with MEF [20], the inhibition result is “Active”.
Take `C=C1CC[C@H](O)C/C1=C/C=C1\CCC[C@]2(C)[C@@H]([C@H](C)[C@H](O)CCC(C)C)CC[C@@H]12`: the Activity was 214% in test [10] (filed as activator) and 103% in [4] (filed as activator). Moreover, the IC50 in [3] worked out at 0.42 µM; in test [6], 1.2 µM. Also, the dissociation constant Kd in test [8] is 4.3 µM.
As to `C#CCO[C@@H](CCC(C)C)[C@@H](C)[C@H]1CC[C@H]2/C(=C/C=C3/C[C@@H](O)CCC3=C)CCC[C@]12C`, the Activity in test [10] and in test [4] was under 1% throughout. Also, the results for the IC50 in test [3] and in [6] were 0.26 µM and 2.6 µM, respectively.
Regarding `C=C1CC[C@H](O)C/C1=C/C=C1\CCC[C@]2(C)[C@@H]([C@H](C)[C@H](CCC(C)(C)O)OCc3cn(CCOCCOCCOCCNC(=O)CCCC[C@H]4SC[C@H]5NC(=O)N[C@H]54)nn3)CC[C@@H]12`, the Activity in test [10] and in [4] was under 1% each time. The IC50 in [3] turned out to be 3.4 µM; in [6], 7.2 µM. The result in the test on ASZ001 [14] and in the test with C3H 10T1/2 was Active.
For `C=C1CC[C@H](O)C/C1=C/C=C1\CCC[C@]2(C)[C@@H]([C@H](C)[C@H](O)CCC(C)(C)O)CC[C@@H]12`, the Activity in [10] (filed as activator) was found to be 527%; in [4] (filed as activator) it was 122%. The IC50 amounted to 0.71 µM in [3] and 0.79 µM in test [6]. The Kd in [8] is 40.3 µM.

The values above are taken from ChEMBL document CHEMBL5046232, “Affinity-based protein profiling identifies vitamin D3 as a heat shock protein 70 antagonist that regulates hedgehog transduction in murine basal cell carcinoma” (Eur J Med Chem, 2022).
